Consider 3 molecules from patent publication US8343988B2, “Inhibitors of histone deacetylase” (Janssen Pharmaceutica, N.V, priority 2002, dated 2013).

Like-named read-outs stand apart in the source and are kept apart here.

The test system of series [1] is A2780 ovarian carcinoma cells. The series is described as follows: Antiproliferative activity on A2780 cells (MTT). The settings on record: Homo sapiens, 96 h, four days of incubation, read-out: Cellular activity pIC50 (converted). The class given is cell-based. How it is done:
Cellular activity of the compounds of formula (I) was determined on A2780 tumour cells using a […] assay for cell toxicity or survival (Mosmann Tim, Journal of Immunological Methods 65: 55-63, 1983)(see example C.2).
All compounds tested were dissolved in DMSO and further dilutions were made in culture medium. Final DMSO concentrations never exceeded 0.1% (v/v) in cell proliferation assays. Controls contained A2780 cells and DMSO without compound and blanks contained DMSO but no cells. MTT was dissolved at 5 mg/ml in PBS. A glycine buffer comprised of 0.1 M glycine and 0.1 M NaCl buffered to pH 10.5 with NaOH (1 N) was prepared (all reagents were from Merck).
The human A2780 ovarian carcinoma cells (a kind gift from Dr. T. C. Hamilton [Fox Chase Cancer Centre, Pennsylvania, USA]) were cultured in RPMI 1640 medium supplemented with 2 mM L-glutamine, 50 μg/ml gentamicin and 10% fetal calf serum. Cells were routinely kept as monolayer cultures at 37° C. in a humidified 5% CO2 atmosphere. Cells were passaged once a week using a trypsin/EDTA solution at a split ratio of 1:40. All media and supplements were obtained from Life Technologies. Cells were free of mycoplasma contamination as determined using the Gen-Probe Mycoplasma Tissue Culture kit (supplier: BioMérieux).
Cells were seeded in NUNC™ 96-well culture plates (Supplier: Life Technologies) and allowed to adhere to the plastic overnight. Densities used for plating were 1500 cells per well in a total volume of 200 μl medium. After cell adhesion to the plates, medium was changed and drugs and/or solvents were added to a final volume of 200 μl. Following four days of incubation, medium was replaced by 200 μl fresh medium and cell density and viability was assessed using an MTT-based assay. To each well, 25 μl MTT solution was added and the cells were further incubated for 2 hours at 37° C. The medium was then carefully aspirated and the blue MTT-formazan product was solubilized by addition of 25 μl glycine buffer followed by 100 μl of DMSO. […] Within an experiment, the results for each experimental condition are the mean of 3 replicate wells. For initial screening purposes, compounds were tested at a single fixed concentration of 10^−6 M. For active compounds, the experiments were repeated to establish full concentration-response curves. For each experiment, controls (containing no drug) and a blank incubation (containing no cells or drugs) were run in parallel. The blank value was subtracted from all control and sample values. For each sample, the mean value for cell growth (in absorbance units) was expressed as a percentage of the mean value for cell growth of the control. […] Herein the effects of test compounds are expressed as pIC50 (the negative log value of the IC50-value).

Test in series [2]: not given
This is another data set of the same source.

Series [3] in a line: Kinetic solubility in aqueous media. It is filed as physicochemical. The settings on record: aqueous buffer, kinetic from dmso stock; phosphate citrate buffer pH 7.4, turbidity by nephelometer; read-out: Solubility Score. How it is done:
Kinetic solubility in aqueous media measures the ability of a compound to stay in aqueous solution upon dilution (see example C.3).
DMSO-stock solutions are diluted with a single aqueous buffer solvent in 3 consecutive steps. For every dilution turbidity is measured with a nephelometer.
In the first dilution step, 10 μl of a concentrated stock-solution of the active compound, solubilized in DMSO (5 mM), was added to 100 μl phosphate citrate buffer pH 7.4 and mixed. In the second dilution step, an aliquot (20 μl) of the first dilution step was further dispensed in 100 μl phosphate citrate buffer pH 7.4 and mixed. Finally, in the third dilution step, a sample (20 μl) of the second dilution step was further diluted in 100 μl phosphate citrate buffer pH 7.4 and mixed. All dilutions were performed in 96-well plates. Immediately after the last dilution step the turbidity of the three consecutive dilution steps were measured with a nephelometer. Dilution was done in triplicate for each compound to exclude occasional errors. Based on the turbidity measurements a ranking is performed into 3 classes. Compounds with high solubility obtained a score of 3 and for this compounds the first dilution is clear. Compounds with medium solubility obtained a score of 2. For these compounds the first dilution is unclear and the second dilution is clear. […] The solubility of 6 compounds was measured.

The target of series [4] is histone deacetylase (HeLa nuclear extracts). Kind of series: In vitro assay for inhibition of histone deacetylase. It is filed as biochemical. The settings on record: [3H]acetylated histone H4 peptide substrate, 30 min. As for the experimental part: The in vitro assay for inhibition of histone deacetylase (see example C.1) measures the inhibition of HDAC enzymatic activity obtained with the compounds of formula (I).
HeLa nuclear extracts (supplier: Biomol) were incubated at 60 μg/ml with 2×10^−8 M of radiolabeled peptide substrate. As a substrate for measuring HDAC activity a synthetic peptide, i.e. the amino acids 14-21 of histone H4, was used. The substrate is biotinylated at the NH2-terminal part with a 6-aminohexanoic acid spacer, and is protected at the COOH-terminal part by an amide group and specifically [^3H]acetylated at lysine 16. The substrate, biotin-(6-aminohexanoic)Gly-Ala-([^3H]-acetyl-Lys-Arg-His-Arg-Lys-Val-NH2), was added in a buffer containing 25 mM Hepes, 1 M sucrose, 0.1 mg/ml BSA and 0.01% Triton X-100 at pH 7.4. After 30 min the deacetylation reaction was terminated by the addition of HCl and acetic acid. (final concentration 0.035 mM and 3.8 mM respectively). After stopping the reaction, the free ^3H-acetate was extracted with ethylacetate. After mixing and centrifugation, the radioactivity in an aliquot of the upper (organic) phase was counted in a β-counter.
For each experiment, controls (containing HeLa nuclear extract and DMSO without compound), a blank incubation (containing DMSO but no HeLa nuclear extract or compound) and samples (containing compound dissolved in DMSO and HeLa nuclear extract) were run in parallel. […] The control sample represented 100% of substrate deactylation. For each sample the radioactivity was expressed as a percentage of the mean value of the controls. […] Herein the effects of test compounds are expressed as pIC50 (the negative log value of the IC50-value).

On to `COc1cc(N)c(Cl)cc1C(=O)NC1CCN(CCCOc2ccc(F)cc2)CC1OC` (stereo not drawn) [Cisapride], for which the “% metabolism” value (human, 15 min, 5 μM) worked out at 45%.

As to `O=C(NO)c1cnc(N2CCN(CCc3ccc4ccccc4c3)CC2)nc1` [Co. No. 7], the IC50 in series [1] is 444 nM. The melting point in series [2] amounted to 209 °C. The solubility in series [3] was > 454 µM. The “Enzyme activity pIC50” value in series [4] amounted to 7.952.

Turning to `CCCO` [propanol], where the note is “15 min incubation with active microsomes, compound 5 μM”, the “% metabolism” value is listed as 25%.

The term melting point denotes the temperature of the solid-liquid transition. What is called solubility is how much of the substance goes into solution per volume.
